From patent US6703347B2, “Isothiazole derivatives and their use as pesticides” (Syngenta Limited, priority 2000, dated 2004) come the findings set out here.

The test system of data set [1] is peach potato aphids (Myzus persicae). As to conditions: 500 ppm by weight; infested Chinese cabbage leaves sprayed; mortality assessed after three days.
Method: This Example illustrates the pesticidal/insecticidal properties of compounds of formula (I). The activities of individual compounds of formula (I) were determined using a variety of pests. The pests were treated with a liquid composition containing 500 parts per million (ppm) by weight of a compound of formula (I). Each composition was made by dissolving the compound in an acetone and ethanol (50:50 by volume) mixture and diluting the solution with water containing 0.05% by volume of a wetting agent, SYNPERONIC NP8, until the liquid composition contained the required concentration of the compound.
(§1) The test procedure adopted with regard to each pest was essentially the same and comprised supporting a number of the pests on a medium, which was usually a substrate, a host plant or a foodstuff on which the pests feed, and treating either or both the medium and the pests with a composition. Pest mortality was assessed usually between two and five days after treatment.
In each test against peach potato aphids (Myzus persicae), Chinese cabbage leaves were infested with aphids, the infested leaves were sprayed with a test composition and pest mortality was assessed after three days.
Data set [2] concerns fruit flies (Drosophila melanogaster). In words: pesticidal test against fruit flies. As to conditions: liquid composition containing 500 ppm by weight of compound.
Method: (§2) The activities of individual compounds of formula (I) were determined using a variety of pests. The pests were treated with a liquid composition containing 500 parts per million (ppm) by weight of a compound of formula (I). Each composition was made by dissolving the compound in an acetone and ethanol (50:50 by volume) mixture and diluting the solution with water containing 0.05% by volume of a wetting agent, SYNPERONIC NP8, until the liquid composition contained the required concentration of the compound.
as §1
(§3) Similar tests were conducted against, independently, two-spotted spider mites (Tetranychus urticae), fruit flies (Drosophila melanogaster), tobacco budworms (Heliothis virescens), diamond back moth (Plutella xylostella) and corn root worm (Diabrotica balteata).
Data set [3] concerns corn root worm (Diabrotica balteata). In words: pesticidal test against corn root worm. As to conditions: liquid composition containing 500 ppm by weight of compound.
Method: as §2, §1, §3
For data set [4], the system named is diamond back moth (Plutella xylostella). Description: pesticidal test against diamond back moth. As to conditions: liquid composition containing 500 ppm by weight of compound.
Method: as §2, §1, §3
For data set [5], the system named is tobacco budworms (Heliothis virescens). In words: pesticidal test against tobacco budworms. As to conditions: liquid composition containing 500 ppm by weight of compound.
Method: as §2, §1, §3

As to `Cc1nsc(NC(=O)C(C)c2ccc3oc(CC(C)C)nc3c2)c1Cl` (stereo not drawn) [Table 1 Compound 6], in data set [1], the “mortality (score) Mp” value is on record as 0 (represents less than 40% mortality). Also, in data set [2], the “mortality (score) Dm” value is reported as 0 (represents less than 40% mortality). In addition, the “mortality (score) Db” value in data set [3] is 9 (9 indicates 80-100% mortality). Also, the “mortality (score) Px” value in data set [4] is 9 (9 indicates 80-100% mortality).
On to `CCc1nsc(NC(=O)C(C)c2ccc3oc(C)nc3c2)c1Cl` (stereo not drawn) [Table 1 Compound 81], for which the “mortality (score) Mp” value in data set [1] was 9 (9 indicates 80-100% mortality). Further, the “mortality (score) Dm” value in data set [2] is listed as 9 (9 indicates 80-100% mortality). In addition, the “mortality (score) Db” value in data set [3] is 9 (9 indicates 80-100% mortality). In addition, the “mortality (score) Px” value in data set [4] is on record as 9 (9 indicates 80-100% mortality).
As for `CCc1nsc(NC(=O)C(C)c2ccc3oc(CC(C)C)nc3c2)c1Cl` (stereo not drawn) [Table 1 Compound 86], in data set [1], the “mortality (score) Mp” value is recorded as 9 (9 indicates 80-100% mortality). In addition, the “mortality (score) Dm” value in data set [2] is given as 9 (9 indicates 80-100% mortality). In data set [3], the “mortality (score) Db” value was 9 (9 indicates 80-100% mortality). The “mortality (score) Px” value in data set [4] is listed as 9 (9 indicates 80-100% mortality).
In the case of `CCc1nsc(NC(=O)C(C)c2ccc3oc(CC(C)(C)C)nc3c2)c1Cl` (stereo not drawn) [Table 1 Compound 87], in data set [1], the “mortality (score) Mp” value is 9 (9 indicates 80-100% mortality). In addition, in data set [2], the “mortality (score) Dm” value was 9 (9 indicates 80-100% mortality). In addition, in data set [3], the “mortality (score) Db” value is given as 9 (9 indicates 80-100% mortality). The “mortality (score) Px” value in data set [4] is 9 (9 indicates 80-100% mortality).
`CCc1nsc(NC(=O)C(C)c2ccc3oc(CC(F)(F)F)nc3c2)c1Cl` (stereo not drawn) [Table 1 Compound 88]: the “mortality (score) Mp” value in data set [1] is recorded as 9 (9 indicates 80-100% mortality). Also, in data set [2], the “mortality (score) Dm” value is 0 (represents less than 40% mortality). For the same molecule, in data set [3], the “mortality (score) Db” value was 9 (9 indicates 80-100% mortality). Further, the “mortality (score) Px” value in data set [4] was 9 (9 indicates 80-100% mortality).
`CCc1nsc(NC(=O)C(C)c2ccc3oc(C(F)(F)C(F)(F)C(F)(F)F)nc3c2)c1Cl` (stereo not drawn) [Table 1 Compound 90]: in data set [1], the “mortality (score) Mp” value is 0 (represents less than 40% mortality). The “mortality (score) Dm” value in data set [2] is 0 (represents less than 40% mortality). For the same molecule, the “mortality (score) Db” value in data set [3] is listed as 9 (9 indicates 80-100% mortality). Further, the “mortality (score) Px” value in data set [4] was 9 (9 indicates 80-100% mortality).
As to `CCOCN(C(=O)C(C)c1ccc2oc(CC(C)C)nc2c1)c1snc(CC)c1Cl` (stereo not drawn) [Table 1 Compound 156], in data set [1], the “mortality (score) Mp” value is recorded as 9 (9 indicates 80-100% mortality).
Take `CCOCN(C(=O)C(C)c1ccc2oc(C(F)(F)C(F)(F)F)nc2c1)c1snc(CC)c1Cl` (stereo not drawn) [Table 1 Compound 159]: the “mortality (score) Mp” value in data set [1] was 9 (9 indicates 80-100% mortality). Further, the “mortality (score) Dm” value in data set [2] is listed as 9 (9 indicates 80-100% mortality). For the same molecule, the “mortality (score) Db” value in data set [3] was 9 (9 indicates 80-100% mortality). Moreover, in data set [4], the “mortality (score) Px” value was 9 (9 indicates 80-100% mortality).
For the molecule `CCOCN(C(=O)C(C)c1ccc2oc(C(F)(F)C(F)(F)C(F)(F)F)nc2c1)c1snc(CC)c1Cl` (stereo not drawn) [Table 1 Compound 160], the “mortality (score) Mp” value in data set [1] is on record as 9 (9 indicates 80-100% mortality). Also, the “mortality (score) Dm” value in data set [2] is given as 9 (9 indicates 80-100% mortality). The “mortality (score) Db” value in data set [3] is listed as 9 (9 indicates 80-100% mortality). Besides, the “mortality (score) Px” value in data set [4] is listed as 9 (9 indicates 80-100% mortality).
`CCC(C(=O)Nc1snc(C)c1Cl)c1ccc2oc(C(F)(F)C(F)(F)C(F)(F)F)nc2c1` (stereo not drawn) [Table 2 Compound 10]: in data set [1], the “mortality (score) Mp” value is reported as 5 (5 indicates 40-79% mortality). For the same molecule, in data set [2], the “mortality (score) Dm” value is 0 (represents less than 40% mortality). Further, the “mortality (score) Db” value in data set [3] is listed as 9 (9 indicates 80-100% mortality). In data set [5], the “mortality (score) Hv” value is recorded as 9 (9 indicates 80-100% mortality).
Regarding `CCc1nsc(NC(=O)C(CC)c2ccc3oc(C(F)(F)C(F)(F)C(F)(F)F)nc3c2)c1Cl` (stereo not drawn) [Table 2 Compound 90], in data set [1], the “mortality (score) Mp” value was 0 (represents less than 40% mortality). In addition, the “mortality (score) Dm” value in data set [2] was 0 (represents less than 40% mortality). Further, the “mortality (score) Db” value in data set [3] is 0 (represents less than 40% mortality). For the same molecule, in data set [5], the “mortality (score) Hv” value is reported as 9 (9 indicates 80-100% mortality).
For `Cc1nsc(NC(=O)C(F)c2ccc3oc(CC(C)C)nc3c2)c1Cl` (stereo not drawn) [Table 5 Compound 6], in data set [1], the “mortality (score) Mp” value is listed as 9 (9 indicates 80-100% mortality). In addition, in data set [2], the “mortality (score) Dm” value is on record as 9 (9 indicates 80-100% mortality). The “mortality (score) Db” value in data set [3] was 9 (9 indicates 80-100% mortality). In addition, the “mortality (score) Px” value in data set [4] is 9 (9 indicates 80-100% mortality).
Consider `CCc1nsc(NC(=O)C(F)c2ccc3oc(CC(C)C)nc3c2)c1Cl` (stereo not drawn) [Table 5 Compound 86], for which the “mortality (score) Mp” value in data set [1] is reported as 9 (9 indicates 80-100% mortality). In addition, the “mortality (score) Dm” value in data set [2] is reported as 9 (9 indicates 80-100% mortality). In data set [5], the “mortality (score) Hv” value is reported as 9 (9 indicates 80-100% mortality). The “mortality (score) Px” value in data set [4] is 9 (9 indicates 80-100% mortality).
On to `CCc1nsc(NC(=O)C(F)c2ccc3oc(CC(C)(C)C)nc3c2)c1Cl` (stereo not drawn) [Table 5 Compound 87], for which, in data set [1], the “mortality (score) Mp” value is recorded as 9 (9 indicates 80-100% mortality). Also, in data set [2], the “mortality (score) Dm” value was 9 (9 indicates 80-100% mortality). Besides, the “mortality (score) Hv” value in data set [5] is 9 (9 indicates 80-100% mortality). In addition, the “mortality (score) Px” value in data set [4] is given as 9 (9 indicates 80-100% mortality).
`CCc1nsc(NC(=O)C(F)c2ccc3oc(C(F)(F)C(F)(F)C(F)(F)F)nc3c2)c1Cl` (stereo not drawn) [Table 5 Compound 90]: in data set [1], the “mortality (score) Mp” value was 9 (9 indicates 80-100% mortality). In addition, the “mortality (score) Dm” value in data set [2] is recorded as 9 (9 indicates 80-100% mortality). Moreover, in data set [3], the “mortality (score) Db” value is 9 (9 indicates 80-100% mortality). The “mortality (score) Px” value in data set [4] is reported as 9 (9 indicates 80-100% mortality).
`CCOCN(C(=O)C(F)c1ccc2oc(C(F)(F)C(F)(F)C(F)(F)F)nc2c1)c1snc(CC)c1Cl` (stereo not drawn) [Table 5 Compound 160]: the “mortality (score) Mp” value in data set [1] is on record as 9 (9 indicates 80-100% mortality). Besides, the “mortality (score) Dm” value in data set [2] was 0 (represents less than 40% mortality). Moreover, in data set [3], the “mortality (score) Db” value is given as 9 (9 indicates 80-100% mortality). Besides, the “mortality (score) Px” value in data set [4] was 9 (9 indicates 80-100% mortality).
For the molecule `CCOCN(C(=O)C(C)c1ccc2sc(CC(C)C)nc2c1)c1snc(CC)c1Cl` (stereo not drawn) [Table 39 Compound 156], the “mortality (score) Mp” value in data set [1] is listed as 9 (9 indicates 80-100% mortality). For the same molecule, the “mortality (score) Dm” value in data set [2] was 0 (represents less than 40% mortality). Further, in data set [5], the “mortality (score) Hv” value is 9 (9 indicates 80-100% mortality). In addition, in data set [4], the “mortality (score) Px” value was 9 (9 indicates 80-100% mortality).
Take `CCOCN(C(=O)CCc1ccc2oc(CC(C)(C)C)nc2c1)c1snc(C)c1Cl` [Table 82 Compound 77]: in data set [1], the “mortality (score) Mp” value is on record as 9 (9 indicates 80-100% mortality). The “mortality (score) Dm” value in data set [2] is 0 (represents less than 40% mortality). For the same molecule, the “mortality (score) Hv” value in data set [5] was 0 (represents less than 40% mortality). Further, the “mortality (score) Px” value in data set [4] is reported as 0 (represents less than 40% mortality).
